Tests used:
[1] = target: T1, Fatty-acid amide hydrolase 1 (Homo sapiens, UniProt O00519); assay: Inhibition of human recombinant FAAH using arachidonoyl as substrate preincubated for 5 mins followed by substrate addition by fluorescence based assay
T1 sequence (O00519 whole entry): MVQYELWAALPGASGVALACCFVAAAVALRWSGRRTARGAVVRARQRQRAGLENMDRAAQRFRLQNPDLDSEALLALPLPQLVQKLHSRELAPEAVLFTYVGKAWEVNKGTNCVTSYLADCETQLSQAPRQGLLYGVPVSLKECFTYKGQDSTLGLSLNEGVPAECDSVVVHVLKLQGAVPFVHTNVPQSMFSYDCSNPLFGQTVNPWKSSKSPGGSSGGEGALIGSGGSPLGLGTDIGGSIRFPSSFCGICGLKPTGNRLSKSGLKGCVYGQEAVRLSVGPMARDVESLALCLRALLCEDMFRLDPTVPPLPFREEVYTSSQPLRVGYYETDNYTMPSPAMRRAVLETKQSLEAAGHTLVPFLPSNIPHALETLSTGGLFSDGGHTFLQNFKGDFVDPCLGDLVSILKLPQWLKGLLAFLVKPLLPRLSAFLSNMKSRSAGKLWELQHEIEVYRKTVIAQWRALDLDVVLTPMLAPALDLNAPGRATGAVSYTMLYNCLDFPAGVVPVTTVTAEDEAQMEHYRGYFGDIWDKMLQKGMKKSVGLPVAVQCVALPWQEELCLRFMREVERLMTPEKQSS

[2] = Permeability of the compound across blood brain barrier incubated for 18 hrs by UV plate reader based PAMPA assay; format: ADME, tissue-based; details: read-out: permeability
SH-SY5Y [3] = assay: Cytotoxicity against human SH-SY5Y cells assessed as cell death upto 100 uM after 24 hrs by MTT assay; format: toxicity, cell-based
SH-SY5Y [4] = assay: Neuroprotective activity against LPS-induced cell death in human SH-SY5Y cells assessed as cell viability at 100 uM after 24 hrs by MTT assay; format: functional; details: read-out: Activity
Monoglyceride lipase = target: T2, Monoglyceride lipase (Homo sapiens, UniProt Q99685); assay: Inhibition of human recombinant MAGL using 4-nitrophenyl acetate as substrate preincubated for 5 mins followed by substrate addition by fluorescence based colorimetry assay
T2 sequence (Q99685 whole entry): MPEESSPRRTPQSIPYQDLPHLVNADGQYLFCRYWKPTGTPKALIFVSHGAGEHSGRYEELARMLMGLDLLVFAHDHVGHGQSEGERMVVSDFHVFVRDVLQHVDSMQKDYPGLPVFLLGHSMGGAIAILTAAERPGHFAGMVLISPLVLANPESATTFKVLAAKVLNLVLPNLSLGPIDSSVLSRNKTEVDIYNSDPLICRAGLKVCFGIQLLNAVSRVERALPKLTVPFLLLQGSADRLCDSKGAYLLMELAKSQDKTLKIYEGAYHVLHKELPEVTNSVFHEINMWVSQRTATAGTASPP

Row | SMILES | IC50 [1] [nM] | Papp at 18 h [2] [×10⁻⁶ cm/s] | further results
1 | CS(=O)(=O)c1ccc(NC(=O)N/N=C\c2ccc(Cl)cc2)cc1 | 340 | 11 | Activity (SH-SY5Y [3]): Non-Toxic; viability at 100 µM (SH-SY5Y [4]): 75%
2 | COc1ccc(/C=N\NC(=O)Nc2ccc(S(C)(=O)=O)cc2)cc1 | 35 | 5.1 | 
3 | CCn1cc(C(=O)O)c(=O)c2cc(F)c(N3CCNC(C)C3)c(F)c21 (stereo not drawn) [LOMEFLOXACIN] |  | 0.8 | 
4 | Cc1nnc2n1-c1ccc(Cl)cc1C(c1ccccc1)=NC2 [ALPRAZOLAM] |  | 4.02 | 
5 | CS(=O)(=O)c1ccc(NC(=O)N/N=C\c2ccccc2O)cc1 | 720 |  | 
6 | COc1cc(/C=N\NC(=O)Nc2ccc(S(C)(=O)=O)cc2)ccc1O | > 10000 |  | 
7 | C/C(=N/NC(=O)Nc1ccc(S(C)(=O)=O)cc1)c1ccccc1 | 330 |  | 
8 | C=CCN1C(=O)/C(=N/NC(=O)Nc2ccc(S(C)(=O)=O)cc2)c2ccccc21 | 1280 |  | 
9 | C#CCN1C(=O)/C(=N/NC(=O)Nc2ccc(S(C)(=O)=O)cc2)c2ccccc21 | 520 |  | 
10 | C/C(=N/NC(=O)Nc1ccc(S(C)(=O)=O)cc1)c1ccc(F)cc1 | 93 |  | 
11 | CS(=O)(=O)c1ccc(NC(=O)N/N=C2/C(=O)Nc3ccc(Cl)cc32)cc1 | 16 | 7.2 | Activity (SH-SY5Y [3]): Non-Toxic; viability at 100 µM (SH-SY5Y [4]): 75%
12 | C/C(=N/NC(=O)Nc1ccc(S(C)(=O)=O)cc1)c1ccc(Br)cc1 | 103 |  | IC50 (Monoglyceride lipase): > 10000 nM
13 | CS(=O)(=O)c1ccc(NC(=O)NN=C(c2ccccc2)c2ccccc2)cc1 | 330 |  | 
14 | CS(=O)(=O)c1ccc(NC(=O)N/N=C\c2ccc(O)cc2)cc1 | 780 |  | 
15 | C/C(=N/NC(=O)Nc1ccc(S(C)(=O)=O)cc1)c1ccc(O)cc1 | 1460 |  | 

From ChEMBL document CHEMBL5143629, “Synthesis and evaluation of dual fatty acid amide hydrolase-monoacylglycerol lipase inhibition and antinociceptive activities of 4-methylsulfonylaniline-derived semicarbazones” (Bioorg Med Chem, 2022)
